From patent US5801180A, “Quinazoline derivatives” (priority 1991, dated 1998)

Target: T1, cGMP-PDE prepared from the swine aeorta (Sus scrofa, UniProt A0A287B475)
T1 construct: The swine aeorta was sliced; from tissue; host or cells: swine aorta, 100000×g supernatant, DEAE-Toyopearl 650S fraction
Assay: Enzyme inhibiting action with the use of cGMP-PDE prepared from the swine aorta
Type: biochemical
Conditions: CaM-independent cGMP-PDE, 1 mM EGTA, 1 μM cGMP substrate, DMSO 4% or below
Method: Enzyme inhibiting action with the use of cGMP-PDE prepared from the swine aeorta
The enzymatic activity of the cGMP-PDE prepared from the swine aeorta was determined according to the method of Thompson et al. ^(1). The enzymatic activity thereof was determined in the presence of 1 mM EGTA by the use of 1 μM cGMP as a substrate. The compound of the present invention was dissolved in DMSO, added to the reaction liquid and examined for the inhibitory activity. The final concentration of DMSO in the reaction liquid was adjusted to 4% or below. (1) Thompson, W. J. and Strada, S. J., Cyclic Nucleotide Phosphodiesterase (PDE), in Methods of Enzymatic Analysis, vol 4, p.127-234, 1984.
The swine aeorta was sliced, followed by the addition of 10 times by volume as much Buffer A (20 mM Tris/HCl, 2 mM Mg acetate, 1 mM Dithiothreitol, 5 mM EDTA, 1400 TIU/liter aprotinin, 10 mg/liter leupeptin, 1 mM benzamidine, 0.2 mM PMSF, pH 7.5). The obtained mixture was homogenized and the homogenate was centrifuged at 100000×g for one hour. The obtained supernatant was supplied a DEAE-Toyopearl 650S (Tosoh, Tokyo, Japan) column. After the column was washed with Buffer B (50 mM Tris/HCl, 0.1 mM EGTA, 2 mM Mg acetate, 1 mM Dithiothreitol, 0.2 mM PMSF, pH 7.5), gradient elution with 0.05 to 0.4M NaCl was conducted. Thus, CaM-independent cGMP-PDE fractions were obtained.

Structure (SMILES)	IC50
C/C(=C/c1nc(NCc2ccc3c(c2)OCO3)c2cc(Cl)ccc2n1)C(=O)O [Example 123, (Z)-2-(2-carboxy-1-propenyl)-4-(3,4-methylenedioxybenzyl)amino-6-chloroquinazoline]	31 nM
NC(=O)c1ccc2nc(N3CCC(C(=O)O)CC3)nc(NCc3ccc4c(c3)OCO4)c2c1 [Example 245, 2-(4-Carboxypiperidino)-4-(3,4-methylenedioxybenzyl)amino-6-carbamoylquinazoline]	100 nM
O=C(O)CCCNc1nc(NCc2ccc3c(c2)OCO3)c2cc(Cl)ccc2n1 [Example 238, 2-(3-Carboxypropyl)amino-4-(3,4-methylenedioxybenzyl)amino-6-chloroquinazoline]	5 nM
Clc1ccc2nc(Cl)nc(NCc3ccc4c(c3)OCO4)c2c1 [Example 92, 2,6-Dichloro-4-(3,4-methylenedioxybenzyl)aminoquinazoline]	94 nM
COc1cc2c(NCc3ccc4c(c3)OCO4)nc(N3CCC(C(=O)O)CC3)nc2c(OC)c1OC [Example 231, 2-(4-Carboxypiperidino)-4-(3,4-methylenedioxybenzyl)amino-6,7,8-trimethoxyquinazoline]	410 nM
COc1ccc2nc(CO)nc(NCc3ccc4c(c3)OCO4)c2c1 [Example 139, 2-Hydroxymethyl-4-(3,4-methylenedioxybenzyl)amino-6-methoxyquinazoline]	21 nM
COc1ccc2nc(OCc3ccccc3)nc(NCc3ccc4c(c3)OCO4)c2c1 [Example 91, 2-Benzyloxy-4-(4-methylenedioxybenzyl)amino-6-methoxyquinazoline]	36 nM
NC(=O)c1ccc2ncnc(NCc3ccc4c(c3)OCO4)c2c1 [Example 133, 4-(3,4-Methylenedioxybenzyl)amino-6-carbamoylquinazoline]	770 nM
Clc1ccc2nc(-n3ccnc3)nc(NCc3ccc4c(c3)OCO4)c2c1 [Example 192, 2-(1-Imidazolyl)-4-(3,4-methylenedioxybenzyl)amino-6-chloroquinazoline]	20 nM
N#Cc1ccc2ncnc(NCc3ccc4nc[nH]c4c3)c2c1 [Example 67, 4-(Benzimidazol-5-yl)methylamino-6-cyanoquinazoline]	140 nM
NC(=O)CNc1nc(NCc2ccc3c(c2)OCO3)c2cc(Cl)ccc2n1 [Example 197]	66 nM
COc1cc(OC)c2ncnc(NCc3ccc4c(c3)OCO4)c2c1 [Example 71, 4-(3,4-Methylenedioxybenzyl)amino-6,8-dimethoxyquinazoline]	810 nM
COc1cc2c(NCc3ccc4c(c3)OCCO4)ncnc2c(OC)c1OC [Example 25, 4-(4-Ethylenedioxybenzyl)amino-6,7,8-trimethoxyquinazoline]	780 nM
N#Cc1ccc2nc(OCCO)nc(NCc3ccc4c(c3)OCO4)c2c1 [Example 169, 2-(2-Hydroxyethoxy)-4-(3,4-methylenedioxybenzyl)amino-6-cyanoquinazoline]	11 nM
COc1ccc(CNc2nc(/C=C(/C)C(=O)O)nc3ccc(Cl)cc23)cc1Cl [Example 126, (Z)-2-(2-Carboxy-1-propenyl)-4-(3-chloro-4-methoxybenzyl)amino-6-chloroquinazoline]	1 nM
Nc1cc(CNc2ncnc3ccc(Cl)cc23)ccc1Cl [Example 151, 4-(3-Amino-4-chlorobenzyl)amino-6-chloroquinazoline]	81 nM
CCOC(=O)/C(C)=C/c1nc(NCc2ccc3c(c2)OCO3)c2cc(Cl)ccc2n1 [Example 112, (E)-2-(2-Ethoxycarbonyl-1-propenyl)-4-(3,4-methylenedioxybenzyl)amino-6-chloroquinazoline]	2 nM
CCOC(=O)CNc1nc(NCc2ccc3c(c2)OCO3)c2cc(Cl)ccc2n1 [Example 213, 2-(Ethoxycarbonylmethyl)amino-4-(3,4-methylenendioxybenzyl)amino-6-chloroquinazoline]	23 nM
CCN(Cc1ccc2c(c1)OCO2)c1ncnc2c(OC)c(OC)c(OC)cc12 [Example 40]	650 nM
OCCN(CCO)c1nc(NCc2ccc3c(c2)OCO3)c2cc(Cl)ccc2n1 [Example 191, 2-Bis(2-hydroxyethyl)amino-4-(3,4-methylenedioxybenzyl)amino-6-chloroquinazoline]	19 nM
CN(CCCC(=O)O)c1nc(NCc2ccc3c(c2)OCO3)c2cc(Cl)ccc2n1 [Example 240, 2-[N-(3-Carboxypropyl)-N-methylamino]-4-(3,4-methylenedioxybenzyl)amino-6-chloroquinazoline]	4 nM

Structure (SMILES)	IC50
OCC1CCCN1c1nc(NCc2ccc3c(c2)OCO3)c2cc(Cl)ccc2n1 (stereo not drawn) [Example 190, 2-(9-Hydroxymethylpyrrolidin-1-yl)-4-(3,4-methylenedioxyybenzyl)amino-6-chloroquinazoline]	5 nM
CN(CC(=O)O)c1nc(NCc2ccc3c(c2)OCO3)c2cc(C#N)ccc2n1 [Example 241, 2-(N-Carboxymethyl-N-methylamino)-4-(3,4-methylenedioxybenzyl)amino-6-cyanoquinazoline]	180 nM
NC(=O)c1nc(NCc2ccc3c(c2)OCO3)c2cc(Cl)ccc2n1 [Example 134, 2-Carbamoyl-4-(3,4-methylenedioxybenzyl)amino-6-chloroquinazoline]	5 nM
CCOc1ccc2ncnc(NCc3ccc4c(c3)OCO4)c2c1 [Example 64, 4-(3,4-Methylenedioxybenzyl)amino-6-ethoxyquinazoline]	380 nM
Clc1ccc2ncnc(NCc3ccc4nc[nH]c4c3)c2c1 [Example 60, 4-(Benzimidazol-5-ylmethyl)amino-6-chloroquinazoline]	180 nM
COc1ccc(CNc2ncnc3c(OC)c(OC)c(OC)cc23)cc1F [Example 22, 4-(3-Fluoro-4-methoxybenzyl)amino-6,7,8-trimethoxyquinazoline]	360 nM
COc1ccc(CNc2ncnc3ccc(SC)cc23)cc1F [Example 51, 4-(3-Fluoro-4-methoxybenzyl)amino-6-methylthioquinazoline]	69 nM
COc1cc2c(NCc3cc4c(cc3Cl)OCO4)ncnc2c(OC)c1OC [Example 33, 4-(2-Chloro-4,5-methylenedioxybenzyl)amino-6,7,8-trimethoxyquinazoline]	370 nM
COCCOc1nc(NCc2ccc3c(c2)OCO3)c2cc(Cl)ccc2n1 [Example 164, 2-(2-Methoxyethoxy)-4-(3,4-methylenedioxybenzyl)amino-6-chloroquinazoline]	8 nM
OCC(O)COc1nc(NCc2ccc3c(c2)OCO3)c2cc(Cl)ccc2n1 (stereo not drawn) [Example 178, 2-(2,3-Dihydroxypropyl)oxy-4-(3,4-methylenedioxybenzyl)amino-6-chloroquinazoline]	11 nM
CCOC(=O)/C=C/c1nc(NCc2ccc(OC)c(Cl)c2)c2cc(Cl)ccc2n1 [Example 115, (E)-2-(2-Ethoxycarbonylvinyl)-4-(3-chloro-4-methoxybenzyl)amino-6-chloroquinazoline]	2 nM
COc1ccc(CNc2ncnc3c(OC)c(OC)c(OC)cc23)cc1 [Example 7, 4-(4-Methoxybenzyl)amino-6,7,8-trimethoxyquinazoline]	1000 nM
COc1ccc(CNc2nc(/C=C(\C)C(=O)O)nc3ccc(Cl)cc23)cc1Cl [Example 125, (E)-2-(2-Carboxy-1-propenyl)-4-(3-chloro-4-methoxybenzyl)amino-6-chloroquinazoline]	9 nM
COc1cc2c(N(CCO)Cc3ccc4c(c3)OCO4)nc(Cl)nc2c(OC)c1OC [Example 105, 2-Chloro-4-[N-(2-hydroxyethyl)-(3,4-methylenedioxybenzyl)amino]-6,7,8-trimethoxyquinazoline]	180 nM
CCOC(=O)/C=C/c1nc(NCc2ccc3c(c2)OCO3)c2cc(Cl)ccc2n1 [Example 114, (E)-2-(2-Ethoxycarbonylvinyl)-4-(3,4-methylenedioxybenzyl)amino-6-chloroquinazoline]	3 nM
c1ccc2cc3c(NCc4ccc5c(c4)OCO5)ncnc3cc2c1 [Example 78, 4-(3,4-Methylenedioxybenzyl)aminobenzo[g]quinazoline]	500 nM
CSc1ccc2ncnc(NCc3ccc(Cl)c(Cl)c3)c2c1 [Example 50, 4-(3,4-Dichlorobenzyl)amino-6-methylthioquinazoline]	32 nM
COCCOc1nc(NCc2ccc3c(c2)OCO3)c2cc(OC)ccc2n1 [Example 170, 2-(2-Methoxyethoxy)-4-(3,4-methylenedioxybenzyl)amino-6-methoxyquinazoline]	29 nM
CNC(=O)N(C(=O)NC)c1nc(NCc2ccc3c(c2)OCO3)c2cc(Cl)ccc2n1 [Example 203, 2-Bis(methylcarbamoyl)amino-4-(3,4-methylenedioxybenzyl)amino-6-chloroquinazoline]	28 nM
CCCOc1ccccc1-c1nc(NCc2ccc3c(c2)OCO3)c2cc(Cl)ccc2n1 [Example 83, 2-(2-Propoxyphenyl)-4-(3,4-methylenedioxybenzyl)amino-6-chloroquinazoline]	24 nM
OCCNc1nc(NCc2ccc3c(c2)OCO3)c2cc(Cl)ccc2n1 [Example 188, 2-(2-Hydroxyethyl)amino-4-(3,4-methylenedioxybenzyl)amino-6-chloroquinazoline]	29 nM
